Patent US9862679B2, “Potent and selective inhibitors of monoamine transporters; method of making; and use thereof” (priority 2013, dated 2018)
Several values for one entry are separate records, joined by “and”; a condition that tells them apart may be missing. Equal values may be shown once. Read-outs that look alike come from different tables or passages of the source.

Legend:
[1] = molecular target: Sigma 1 (Homo sapiens (Human), UniProt Q99720); assay: Sigma 1 binding affinity (Table 5)
[2] = molecular target: Sigma 2 (Homo sapiens (Human), UniProt Q5BJF2); assay: Sigma 2 binding affinity (Table 5)
Chain of Sigma 2 (Q5BJF2 whole entry): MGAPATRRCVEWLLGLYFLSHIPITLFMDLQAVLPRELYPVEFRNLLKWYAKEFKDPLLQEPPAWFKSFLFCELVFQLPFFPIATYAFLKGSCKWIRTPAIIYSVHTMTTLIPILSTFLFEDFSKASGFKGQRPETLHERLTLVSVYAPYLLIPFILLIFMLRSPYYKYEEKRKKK

[3] = molecular target: dopamine transporter (DAT) (Rattus norvegicus (Rat), UniProt P23977); assay: Dopamine Transporter Binding Assay ([3H]WIN 35428, rat striatal membranes)
Chain of dopamine transporter (DAT) (P23977 whole entry): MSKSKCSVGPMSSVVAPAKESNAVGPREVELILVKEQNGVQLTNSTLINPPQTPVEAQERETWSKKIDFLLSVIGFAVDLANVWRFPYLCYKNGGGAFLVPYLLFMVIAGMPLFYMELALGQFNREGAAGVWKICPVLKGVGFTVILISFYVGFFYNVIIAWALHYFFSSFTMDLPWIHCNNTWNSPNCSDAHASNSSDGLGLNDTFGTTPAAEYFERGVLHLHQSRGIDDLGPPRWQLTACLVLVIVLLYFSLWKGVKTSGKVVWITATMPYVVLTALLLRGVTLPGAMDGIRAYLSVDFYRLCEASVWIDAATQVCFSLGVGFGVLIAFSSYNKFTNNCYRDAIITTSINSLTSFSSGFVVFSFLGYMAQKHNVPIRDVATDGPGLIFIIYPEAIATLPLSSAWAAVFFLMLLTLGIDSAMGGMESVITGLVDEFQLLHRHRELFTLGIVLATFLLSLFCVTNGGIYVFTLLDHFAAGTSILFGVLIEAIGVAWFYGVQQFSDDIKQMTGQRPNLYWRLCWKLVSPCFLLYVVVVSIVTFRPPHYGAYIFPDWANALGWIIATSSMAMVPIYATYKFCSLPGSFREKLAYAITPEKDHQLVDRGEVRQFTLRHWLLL

[4] = molecular target: norepinephrine transporter (NET) (Rattus norvegicus, UniProt Q63380); conditions: rat brain membranes
Chain of norepinephrine transporter (NET) (Q63380 1-617): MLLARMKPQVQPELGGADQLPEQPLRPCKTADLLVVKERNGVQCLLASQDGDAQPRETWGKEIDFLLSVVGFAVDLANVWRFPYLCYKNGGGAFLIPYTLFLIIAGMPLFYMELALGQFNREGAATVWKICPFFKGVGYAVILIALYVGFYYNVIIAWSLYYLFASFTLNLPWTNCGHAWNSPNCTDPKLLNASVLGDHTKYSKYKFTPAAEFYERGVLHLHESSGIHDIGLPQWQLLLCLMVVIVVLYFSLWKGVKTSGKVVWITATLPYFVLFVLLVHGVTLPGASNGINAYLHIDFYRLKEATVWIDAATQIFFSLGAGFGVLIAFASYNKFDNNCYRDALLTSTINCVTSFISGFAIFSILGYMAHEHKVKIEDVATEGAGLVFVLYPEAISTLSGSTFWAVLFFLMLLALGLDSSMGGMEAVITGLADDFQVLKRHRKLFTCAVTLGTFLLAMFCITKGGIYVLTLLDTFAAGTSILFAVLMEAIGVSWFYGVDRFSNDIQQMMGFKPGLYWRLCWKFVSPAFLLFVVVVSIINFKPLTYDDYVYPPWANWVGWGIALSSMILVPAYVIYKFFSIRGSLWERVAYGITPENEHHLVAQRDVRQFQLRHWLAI
Description: Binding affinities of all compounds were evaluated at the DAT, SERT, and NET in rat brain membranes using previously described methods:
Norepinephrine Transporter Binding Assay. Brains from male Sprague-Dawley rats weighing 200-225 g (Taconic Labs, Germantown, N.Y.) were removed, frontal cortex dissected and rapidly frozen. Membranes were prepared by homogenizing tissues in 20 volumes (w/v) of 50 mM Tris containing 120 mM NaCl and 5 mM KCl, (pH 7.4 at 25° C.), using a Brinkman Polytron and centrifuged at 50,000×g for 10 min at 4° C. The resulting pellet was resuspended in buffer, recentrifuged and resuspended in buffer to a concentration of 80 mg/mL. Ligand binding experiments were conducted in assay tubes containing 0.5 mL buffer for 60 min at 0-4° C. […] Nonspecific binding was determined using 1 mM desipramine. Incubations were terminated by rapid filtration through Whatman GF/B filters, presoaked in 0.05% polyethylenimine, using a Brandel R48 filtering manifold (Brandel Instruments Gaithersburg, Md.). The filters were washed twice with 3 mL cold buffer and transferred to scintillation vials. Beckman Ready Value (3.0 mL) was added and the vials were counted using a Beckman 6000 liquid scintillation counter (Beckman Coulter Instruments, Fullerton, Calif.). […] All compounds were tested as racemic mixtures.

[5] = molecular target: T1, serotonin transporter (SERT) (Rattus norvegicus (Rat), UniProt P31652); conditions: for Ki: rat brain membranes
T1 sequence (P31652 whole entry): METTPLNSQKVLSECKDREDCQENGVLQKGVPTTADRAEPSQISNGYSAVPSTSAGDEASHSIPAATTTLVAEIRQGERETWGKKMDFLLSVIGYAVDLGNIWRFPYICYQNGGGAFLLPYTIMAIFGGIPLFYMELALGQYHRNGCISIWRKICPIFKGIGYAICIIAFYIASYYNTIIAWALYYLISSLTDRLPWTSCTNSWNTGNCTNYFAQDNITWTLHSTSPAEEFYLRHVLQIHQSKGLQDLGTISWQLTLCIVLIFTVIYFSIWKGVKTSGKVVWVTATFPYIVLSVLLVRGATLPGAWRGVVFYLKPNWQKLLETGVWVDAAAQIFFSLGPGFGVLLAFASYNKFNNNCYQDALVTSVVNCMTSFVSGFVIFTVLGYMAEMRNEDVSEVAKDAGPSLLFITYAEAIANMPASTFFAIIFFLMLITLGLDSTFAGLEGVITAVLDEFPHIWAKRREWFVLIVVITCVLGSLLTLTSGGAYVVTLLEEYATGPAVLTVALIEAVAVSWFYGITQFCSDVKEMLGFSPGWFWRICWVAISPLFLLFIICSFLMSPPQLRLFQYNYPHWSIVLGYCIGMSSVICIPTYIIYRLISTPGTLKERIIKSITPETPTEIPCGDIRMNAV
Description: (§3) Brains from male Sprague-Dawley rats weighing 200-225 g (Taconic Labs, Germantown, N.Y.) were removed, midbrain dissected and rapidly frozen. […] Nonspecific binding was determined using 10 mM fluoxetine. […] The filters were washed twice with 3 mL cold buffer and transferred to scintillation vials. Beckman Ready Value (3.0 mL) was added and the vials were counted the next day using a Beckman 6000 liquid scintillation counter (Beckman Coulter Instruments, Fullerton, Calif.). […] Data were analyzed with GraphPad Prism software (San Diego, Calif.).

[6] = molecular target: T1, serotonin transporter (SERT); assay: biochemical
Description: as §3

[7] = Metabolic stability in mouse plasma; assay type: in vitro ADME; conditions: mouse plasma, 10 μM, 0 min
Description: The metabolic stability was evaluated using mouse plasma and mouse liver microsomes.

[8] = Phase I metabolic stability in mouse liver microsomes (NADPH); assay type: in vitro ADME; conditions: 10 μM
Description: (§1) Phase I and phase II metabolic stability assay for was conducted in mouse liver microsomes. For phase I metabolism, the reaction was carried out with 100 mM potassium phosphate buffer, pH 7.4, in the presence of NADPH regenerating system (1.3 mM NADPH, 3.3 mM glucose 6-phosphate, 3.3 mM MgCl2, 0.4 U/mL glucose-6-phosphate dehydrogenase, 50 μM sodium citrate). Reactions in duplicate were initiated by addition of the liver microsomes to the incubation mixture (compound final concentration was 10 μM; 0.5 mg/mL microsomes). For phase II glucuronidation reaction compound was added to TRIS-HCl buffer (50 mM, pH 7.5) with microsomes (0.5 mg/mL), along with MgCl2 (8 mM), and alamethicin (25 μg/mL) and pre-incubated at 37° C. The reaction was initiated (in duplicate) with UDPGA at a final concentration of 2 mM. Negative controls in the absence NADPH and UDPGA were carried for both phase I and phase II metabolism respectively, to determine the specific cofactor free degradation. […] At predetermined times (0, 15, 30 and 60 min) aliquots of the mixture were removed and the reaction quenched by addition of two times the volume of ice cold acetonitrile spiked with the internal standard. Compound disappearance was monitored over time using a liquid chromatography and tandem mass spectrometry (LC/MS/MS) method.
(§2) Compounds were separated on an Agilent 1290 UPLC system with a c18 column using a gradient run of 55:45-5:95 water:acetonitrile over 3.2 minutes and detected on an Agilent 6520 QTOF mass spectrometer.

[9] = Phase II (glucuronidation, UDPGA) metabolic stability in mouse liver microsomes; assay type: in vitro ADME
Description: as §1, §2

[10] = read-out: NET Ki ± SEM, Table 5 piperazinyl derivatives
[11] = read-out: SERT Ki ± SEM, Table 5 piperazinyl derivatives
[12] = Table 5 piperazinyl derivatives, read-out: Sigma 1 Ki ± SEM
[13] = Table 5 piperazinyl derivatives, read-out: Sigma 2 Ki ± SEM
[14] = rat brain membranes, Table 5 piperazinyl derivatives, read-out: DAT Ki ± SEM
[15] = rat brain membranes, Table 1 thioacetamides and sulfinylacetamides, read-out: Ki (nM) ± S.E.M. DAT
[16] = read-out: Ki (nM) ± S.E.M. NET, Table 1 thioacetamides and sulfinylacetamides
[17] = read-out: Ki (nM) ± S.E.M. SERT, Table 2 thioethanamines and sulfinylethanamines
[18] = read-out: NET Ki, Table 5, bound in M

Chain of Sigma 1 (Q99720 whole entry): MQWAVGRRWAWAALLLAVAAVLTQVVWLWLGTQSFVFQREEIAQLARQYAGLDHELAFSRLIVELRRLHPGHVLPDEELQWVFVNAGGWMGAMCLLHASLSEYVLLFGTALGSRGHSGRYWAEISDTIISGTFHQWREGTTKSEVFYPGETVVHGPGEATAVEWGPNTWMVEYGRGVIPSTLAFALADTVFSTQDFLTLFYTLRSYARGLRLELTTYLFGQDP

With `[O-][S+](CCN1CCN(CCCc2ccccc2)CC1)C(c1ccccc1)c1ccccc1` (stereo not drawn) [Compound 8a, 1-(2-(Benzhydrylsulfinyl)ethyl)-4-(3-phenylpropyl)piperazine] as the compound, how does the Ki [1] read?
Its Ki is 0.116 ± 0.00124 µM.

And the Ki [2]?
The Ki was 0.0205 ± 0.00043 µM.

What about the Ki ([3]; read-out: DAT Ki ± SEM) of the same compound?
The Ki was 3.17 ± 0.11 nM.

And the Ki [4, 10]?
The Ki was 5540 ± 808 nM.

What about the Ki [5, 11] of the same compound?
Its Ki is 7220 ± 944 nM.

Which Ki [1, 12] does the source give for `OC(Cc1ccccc1)CN1CCN(CCSC(c2ccccc2)c2ccccc2)CC1` (racemic) [Compound 9g, 1-(4-(2-(Benzhydrylthio)ethyl)piperazin-1-yl)-3-phenylpropan-2-ol] here?
Its Ki is 0.03 ± 0.00381 µM.

What about the Ki [2, 13] of the same compound?
Its Ki is 0.0318 ± 0.00363 µM.

And the Ki [3, 14]?
The Ki was 2.54 ± 0.23 nM.

What about the Ki [4, 10] of the same compound?
The Ki was 1430 ± 118 nM.

With `NC(=O)C[S+]([O-])C(c1cccc(F)c1)c1cccc(F)c1` (stereo not drawn) [Compound 3c, 2-((Bis(3-fluorophenyl)methyl)sulfinyl)acetamide] as the compound, how does the Ki [6] read?
The Ki was greater than 100 µM.

What about the Ki [3, 15] of the same compound?
The Ki was 6180 nM.

And the Ki [4, 16]?
The Ki was greater than 100000 nM.

With `[O-][S+](CCN1CCN(CCCc2ccccc2)CC1)C(c1ccc(F)cc1)c1ccc(F)cc1` (stereo not drawn) [Compound 8b, 1-(2-((Bis(4-fluorophenyl)methyl)sulfinyl)ethyl)-4-(3-phenylpropyl)piperazine] as the compound, how does the Ki [1, 12] read?
Its Ki is 0.0424 ± 0.0051 µM.

And the Ki [2, 13]?
The Ki was 0.0259 ± 0.00111 µM.

What about the Ki ([3]; read-out: DAT Ki ± SEM) of the same compound?
The Ki was 2.92 ± 0.38 nM.

And the Ki [4, 10]?
Its Ki is 4280 ± 343 nM.

With `OC(Cc1ccccc1)CN1CCN(CCSC(c2ccc(F)cc2)c2ccc(F)cc2)CC1` (racemic) [Compound 9j, 1-(4-(2-((Bis(4-fluorophenyl)methyl)thio)ethyl)piperazin-1-yl)-3-phenylpropan-2-ol] as the compound, how does the Ki [1] read?
The Ki was 0.0954 ± 0.0134 µM.

What about the Ki [2] of the same compound?
Its Ki is 0.0386 ± 0.00094 µM.

And the Ki [4, 10]?
The Ki was 1950 ± 227 nM.

What about the Ki [5, 11] of the same compound?
Its Ki is 213 nM.

For `O=C(CSC(c1ccc(Br)cc1)c1ccc(Br)cc1)NCC1CC1` [Compound 2q, 2-((Bis(4-bromophenyl)methyl)thio)-N-(cyclopropylmethyl)acetamide], which Ki [6] is on record?
Its Ki is 7.27 µM.

And the Ki [3, 15]?
Its Ki is 993 ± 139 nM.

And the Ki [4, 16]?
The Ki was greater than 100000 nM.

With `CCN(CC)CCOC(=O)c1ccc(N)cc1` [Procaine, reference compound] as the compound, how does the “Metabolic stability, Plasma (% remaining)” value [7] read?
The value was 100%.

Which results are given for `NCCSC(c1ccc(Cl)cc1)c1ccc(Cl)cc1` [Compound 4b, 2-((bis(4-chlorophenyl)methyl)thio)ethan-1-amine]?
Ki [6]: < 0.03 µM; Ki [5, 17]: 30 nM and 29.9 nM

Which “Metabolic stability, Phase I (% remaining)” value ([8]; 0 min) does the source give for `C[C@]12CC[C@H]3[C@@H](CCC4=CC(=O)CC[C@@]43C)[C@@H]1CC[C@@H]2O` [Testosterone, reference compound] here?
The value was 100%.

What about the “Metabolic stability, Phase I (% remaining)” value ([8]; 60 min) of the same compound?
Its value is 0%.

Which results are given for `Cc1cc(=O)oc2cc(O)ccc12` [4 Methyl Umbelliferone, 4-methylumbelliferone, reference compound]?
Metabolic stability, Phase II (% remaining) ([9]; 0 min): 100%; Metabolic stability, Phase II (% remaining) ([9]; 60 min): 3.10%

Which results are given for `CC(O)CN1CCN(CC[S+]([O-])C(c2ccccc2)c2ccccc2)CC1` (racemic) [Compound 10a, 1-(4-(2-(Benzhydrylsulfinyl)ethyl)piperazin-1-yl)propan-2-ol]?
Ki [1, 12]: 0.861 ± 0.109 µM; Ki [2, 13]: 3.93 ± 0.208 µM; Ki ([3]; read-out: DAT Ki ± SEM): 636 ± 14.7 nM; Ki [4, 18]: > 100000 nM; Ki ([5]; read-out: SERT Ki, Table 5, bound in M): > 100000 nM

What does the source list for `CC(O)CN1CCN(CCSC(c2ccccc2)c2ccccc2)CC1` (racemic) [Compound 9a, 1-(4-(2-(Benzhydrylthio)ethyl)piperazin-1-yl)propan-2-ol]?
Ki [1]: 0.00094 ± 7e-05 µM; Ki [2]: 0.0926 ± 0.0135 µM; Ki [3, 14]: 49.6 ± 4.31 nM; Ki [4, 10]: 44500 ± 2400 nM; Ki [5, 11]: 26700 ± 2630 nM

Which Ki [6] does the source give for `NC(=O)C[S+]([O-])C(c1ccccc1)c1cccc(Br)c1` (stereo not drawn) [Compound 3e, 2-(((3-Bromophenyl)(phenyl)methyl)sulfinyl)acetamide] here?
Its Ki is greater than 100 µM.

What about the Ki [3, 15] of the same compound?
Its Ki is 550 ± 7.4 nM.

What about the Ki [4, 16] of the same compound?
The Ki was greater than 100000 nM.

For `NCCSC(c1ccc(Br)cc1)c1ccc(Br)cc1` [Compound 4c, 2-((bis(4-bromophenyl)methyl)thio)ethan-1-amine], which Ki [6] is on record?
The Ki was less than 0.03 µM.

And the “improvement in DAT affinity, halogen-substituted v. unsubstituted analogue” value [3]?
The value was 3 fold.

What about the Ki ([3]; read-out: Ki (nM) ± S.E.M. DAT) of the same compound?
The Ki was 488 ± 52.2 nM.

And the “increase in SERT affinity, halogen-substituted v. unsubstituted analogue” value ([5]; 2i v. 2g (Table 1), 4c v. 4a (Table 2))?
Its value is 9 fold.

And the Ki [5, 17]?
The Ki was 26 nM and 26.3 nM.

Which results are given for `c1ccc(CCCN2CCN(CCSC(c3ccccc3)c3ccccc3)CC2)cc1` [Compound 7a, 1-(2-(Benzhydrylthio)ethyl)-4-(3-phenylpropyl)piperazine]?
Ki [1]: 0.0199 ± 0.00259 µM; Ki [2]: 0.0168 ± 0.00215 µM; Ki [3, 14]: 3.58 ± 0.16 nM; Ki [4, 10]: 988 nM; Ki [5, 11]: 1050 ± 152 nM

Which results are given for `[O-][S+](CCN1CCN(CC(O)Cc2ccccc2)CC1)C(c1ccccc1)c1ccccc1` (racemic) [Compound 10g, 1-(4-(2-(Benzhydrylsulfinyl)ethyl)piperazin-1-yl)-3-phenylpropan-2-ol]?
Ki [1, 12]: 0.983 ± 0.103 µM; Ki [2, 13]: 0.316 ± 0.0252 µM; Ki [3, 14]: 3.43 ± 0.5 nM; Ki [4, 10]: 25300 ± 2040 nM; Ki [5, 11]: 21700 ± 2020 nM

With `O=C(CSC(c1ccccc1)c1ccccc1)NCC1CC1` [Compound 2o, 2-(Benzhydrylthio)-N-(cyclopropylmethyl)acetamide] as the compound, how does the Ki [6] read?
The Ki was 20.9 µM.

What about the Ki [3, 15] of the same compound?
Its Ki is 13900 nM.

And the Ki [4, 16]?
Its Ki is greater than 100000 nM.

With `CC(O)CN1CCN(CC[S+]([O-])C(c2ccc(F)cc2)c2ccc(F)cc2)CC1` (racemic) [Compound 10d, 1-(4-(2-((Bis(4-fluorophenyl)methyl)sulfinyl)ethyl)piperazin-1-yl)propan-2-ol] as the compound, how does the Ki [1, 12] read?
The Ki was 1.01 ± 0.134 µM.

What about the Ki [2, 13] of the same compound?
Its Ki is 1.8 ± 0.264 µM.

And the Ki [4, 18]?
Its Ki is greater than 100000 nM.

What about the Ki [5, 11] of the same compound?
The Ki was 50300 ± 5760 nM.

With `O=C(CSC(c1ccc(F)cc1)c1ccc(F)cc1)NCC1CC1` [Compound 2p, 2-((Bis(4-fluorophenyl)methyl)thio)-N-(cyclopropylmethyl)acetamide] as the compound, how does the Ki [6] read?
Its Ki is 35.4 µM.

And the Ki [3, 15]?
Its Ki is 6860 nM.

And the Ki [4, 16]?
The Ki was 57600 nM.

For `Cc1ccc(C(c2ccc(C)cc2)[S+]([O-])CC(N)=O)cc1` (stereo not drawn) [Compound 3a, 2-((Di-p-tolylmethyl)sulfinyl)acetamide], which Ki [6] is on record?
The Ki was greater than 100 µM.

And the Ki [3, 15]?
Its Ki is 12700 nM.

And the Ki [4, 16]?
The Ki was greater than 100000 nM.

Which Ki [6] does the source give for `NC(=O)C[S+]([O-])C(c1cccc(Cl)c1)c1cccc(Cl)c1` (stereo not drawn) [Compound 3d, 2-((Bis(3-chlorophenyl)methyl)sulfinyl)acetamide] here?
The Ki was greater than 100 µM.

And the Ki [4, 16]?
Its Ki is greater than 100000 nM.

What does the source list for `Fc1ccc(C(SCCN2CCN(CCCc3ccccc3)CC2)c2ccc(F)cc2)cc1` [Compound 7b, 1-(2-((Bis(4-fluorophenyl)methyl)thio)ethyl)-4-(3-phenylpropyl)piperazine]?
Ki [1]: 0.0595 ± 0.00504 µM; Ki [2]: 0.0285 ± 0.00214 µM; Ki [3, 14]: 4.5 ± 0.34 nM; Ki [4, 10]: 1890 ± 116 nM; Ki [5, 11]: 285 nM
